Where two headings read alike, the source gives them in different places.
Legend:
Type in all cases: cell-based, human
[1] = test system: IFNγ production by cells of HC donors; test: IFNγ production (SFC) in HC donors in response to broadly conserved peptides; details: for IFNg SFC: HC donors; for # resp IFNg: number of responding HC donors out of # tested (5 or 6)
Procedure: To test this hypothesis, the HLA binding capacity of the 4241 broadly conserved peptides for common HLA class II alleles was predicted. Next peptides were selected predicted to bind with high affinity to alleles expressed in representative HC donors were tested for IL-10 production. Several frequently recognized IL-10 producing peptides could be identified (FIG. 13A), none of which produced a significant amount of IFNγ (FIG. 13B).

[2] = test system: IL-10 production by cells of HC donors; details: for IL-10 SFC: HC donors; for # resp IL-10: number of responding HC donors out of # tested (5 or 6)
[3] = test system: T cells of LTBI and HC donors; test: antigen reactivity in LTBI vs HC donors (LTBI-specific or crossreactive); details: response frequency and magnitude in LTBI vs HC donors, FIG. 10
Source text: The data herein implies that preexisting immunity and occasional boosting might be provided by exposure to NTMs, in a low MTB-complex exposure population such as the one from the general San Diego area. This might be viewed as desirable, or alternatively contributing an undesired confounding factor in evaluation of vaccination strategies. Regardless, whether or not preexisting, non-TB-complex related reactivity is present in the general population is an important issue has implication for the development of vaccination strategies. To further investigate this issue, epitope reactivity data (Lindestamm-Arlehamn et al, 2012) was mapped back to the specific antigens from which the epitopes were derived. Antigens recognized by 2 or more donors were further categorized as LTBI-specific or crossreactive according to the following criteria; antigens were categorized as LTBI-specific if there was a lack of reactivity in HC individuals, or if the ratio between response frequency and total SFC for LTBI/HC were >4. All other antigens were categorized as crossreactive.

[4] = test system: PBMC from 30 HC individuals; test: ex vivo IFNγ ELISPOT with NTM-specific peptides
CD4+ memory T cells = test system: CD4+ memory T cells
[5] = response frequency among HC donors, NTM-specific peptides (Table 2)
[6] = total spot forming cells, IFNγ ELISPOT, NTM-specific peptides (Table 2)

Substance	IFNg SFC [1]	# resp IFNg [1]	IL-10 SFC [2]	# resp IL-10 [2]	Resp Freq [4, 5]	Total SFC [4, 6]	further results
ASVSKQFTATAILLL [Peptide 3580.0013]	23 SFC	0	918 SFC	4	–	–	–
RELIRAFWPGALSLV [Peptide 3580.0019]	27 SFC	0	422 SFC	3	–	–	–
LSSTEFELLRFLMRN [Peptide 3580.0020]	33 SFC	0	1017 SFC	5	–	–	–
AKSVLIFLGIPLLAG [Peptide 3580.0010]	35 SFC	0	892 SFC	4	–	–	–
IGQFGIGFYSSFMVA [Peptide 3580.0012]	10 SFC	0	468 SFC	3	–	–	–
YVLFLFTQTVRHRDF [Peptide 3580.0014]	53 SFC	0	975 SFC	4	–	–	–
APFISEFLVLLGTFS [Peptide 3580.0005]	15 SFC	0	585 SFC	3	–	–	–
AELTRVRQQVIQLLS [Peptide 3580.0001]	27 SFC	0	733 SFC	4	–	–	–
FAIMFEALFILTTVD [Peptide 3580.0006]	32 SFC	0	915 SFC	5	–	–	–
ASGLIFGWLAFLLVF [Peptide 3580.0018]	20 SFC	0	652 SFC	4	–	–	–
ASCKYMKMITPAALL [Peptide 3580.0015]	32 SFC	0	730 SFC	4	–	–	–
DRIAQLLVQRVELVE [Peptide 3580.0009]	50 SFC	0	1018 SFC	5	–	–	–
LPFFSFMTYLIAVPT [Peptide 3580.0007]	22 SFC	0	505 SFC	4	–	–	–
ESFLFYSGFYLPMYW [Peptide 3580.0002]	8 SFC	0	570 SFC	4	–	–	–
ATFAGIYFWFPKMTG [Peptide 3580.0008]	28 SFC	0	1328 SFC	6	–	–	–
LAMFAIIFFWTPPHT [Peptide 3580.0016]	27 SFC	0	1142 SFC	5	–	–	–
Rv3804c: MTB antigen currently included in TB vaccines in clinical development	–	–	–	–	–	–	antigen reactivity category (LTBI-specific or crossreactive) [3]: widely cross-reactive
732 (PLRVAFLIVLIGTTV) [Peptide 732]	–	–	–	–	3%	33 SFC	–
1393 (ANVRYISGAPQLWVV) [Peptide 1393]	–	–	–	–	3%	42 SFC	–
883 (EWFARILFSLFSTPS) [Peptide 883]	–	–	–	–	3%	28 SFC	–
628 (LGVFPLIVMFLITSI) [Peptide 628]	–	–	–	–	3%	53 SFC	–
1331 (VEAGMVYVTLPPLFV) [Peptide 1331]	–	–	–	–	3%	58 SFC	–
FTGKPEFVENFFMFI [Peptide 3580.0004]	27 SFC	0	622 SFC	3	–	–	–

Substance	IFNg SFC [1]	# resp IFNg [1]	IL-10 SFC [2]	# resp IL-10 [2]	Resp Freq [4, 5]	Total SFC [4, 6]	further results
SQRLVTLSYRLDAAA [Peptide 1471]	–	–	–	–	7%	58 SFC	Resp Freq [4]: 7%; Total SFC [4]: 58 SFC
543 (VIMPWMIFYQQGAVV) [Peptide 543]	–	–	–	–	3%	43 SFC	–
1204 (TPGLNLVYAHLNRII) [Peptide 1204]	–	–	–	–	3%	30 SFC	–
861 (MVFATLLPLGVLQLY) [Peptide 861]	–	–	–	–	3%	47 SFC	–
1549 (RILQVFTEAYADVER) [Peptide 1549]	–	–	–	–	3%	48 SFC	–
GRFIALLRIFAGPLA [Peptide 3580.0011]	52 SFC	0	1480 SFC	5	–	–	–
HEEIQLLANDFSTML [Peptide 446]	–	–	–	–	3%	182 SFC	Resp Freq [4]: 3%; Total SFC [4]: 182 SFC
1284 (NAVLFLASDEARYIT) [Peptide 1284]	–	–	–	–	3%	25 SFC	–
1334 (FFDAGLVVFLPIIMT) [Peptide 1334]	–	–	–	–	3%	47 SFC	–
FVTYWSFRMMIGLMA [Peptide 3580.0003]	10 SFC	0	563 SFC	4	–	–	–
397 (ALMNQFISLLKASSL) [Peptide 397]	–	–	–	–	3%	40 SFC	–
1474 (MFETMAAFMLVEHAN) [Peptide 1474]	–	–	–	–	3%	23 SFC	–
421 (DPAFRQVFAAQFLPD) [Peptide 421]	–	–	–	–	3%	40 SFC	–
531 (LDSFQLFPNFVILFW) [Peptide 531]	–	–	–	–	3%	28 SFC	–
106 (GLSSAWLSLIFAEMI) [Peptide 106]	–	–	–	–	3%	55 SFC	–
439 (GMVFQSFNLFAHKTI) [Peptide 439]	–	–	–	–	3%	28 SFC	–
MVAFMVRYTSGYLCV [Peptide 3580.0017]	8 SFC	0	1058 SFC	4	–	–	–
HQGLAFLLADMAAAV [Peptide 8]	–	–	–	–	3%	58 SFC	Resp Freq [4]: 3%; Total SFC [4]: 58 SFC
QAAVVRFQEAANKQK [CFP1052-66]	–	–	–	–	–	–	epitope-specific cells in CD4+ naive subset or CD4+ memory subset of control donors (CD4+ memory T cells): No epitope-specific cells were detected; frequency of epitope-specific CD4+ memory T cells, median (CD4+ memory T cells; 5 LTBI donors, median (interquartile range 0.03-0.33)): 0.09
621 (AKVLGVFLVTEIVML) [Peptide 621]	–	–	–	–	3%	27 SFC	–
645 (PASILILFAPGAPRE) [Peptide 645]	–	–	–	–	3%	23 SFC	–
1526 (VATVRAASSLVRAPL) [Peptide 1526]	–	–	–	–	3%	27 SFC	–
1075 (SPEQAYLLLGAAPIE) [Peptide 1075]	–	–	–	–	3%	22 SFC	–
